Measurements as given in US9302999B2, “Substituted triazoles as herbicides” (E. I. DU PONT DE NEMOURS AND COMPANY, priority 2012, dated 2016).

Tests used:
Assay type in all cases: in vivo
[1] = system: ragweed (common ragweed, Ambrosia elation); experiment: Test C pre-/postemergence: ragweed
In short: (§1)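 Preemergence on seeds in loam/sand, postemergence on 2–18 cm (1–4-leaf) plants in peat-based medium; compounds in non-phytotoxic solvent with surfactant. After 13–15 days in greenhouse, visual rating versus controls, 0 (no effect) to 100 (complete control).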

[2] = system: pigweed (Amaranthus retroflexus); experiment: Test C pre-/postemergence: pigweed
In short: as §1

[3] = system: corn (Zea mays); experiment: Test A pre-/postemergence: corn
In short: (§2)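 Compounds, formulated with surfactant in non-phytotoxic solvent, were applied as a directed soil spray preemergence and as postemergence sprays to 2–10 cm, one- to two-leaf seedlings grown in loam soil blended with sand; visual injury, 0–100, assessed ~10 days post-treatment against untreated controls.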

[4] = system: kochia (Kochia scoparia); experiment: Test C pre-/postemergence: kochia
In short: as §1

[5] = system: galium (catchweed bedstraw, Galium aparine); experiment: Test C pre-/postemergence: galium
In short: as §1

[6] = system: large crabgrass (Digitaria sanguinalis); experiment: Test C pre-/postemergence: large crabgrass
In short: as §1

[7] = system: ryegrass, Italian (Italian ryegrass, Lolium multiflorum); experiment: Test C pre-/postemergence: ryegrass, Italian
In short: as §1

[8] = system: crabgrass, large (large crabgrass, Digitaria sanguinalis); experiment: Test A pre-/postemergence: crabgrass, large
In short: as §2

[9] = system: foxtail, giant (giant foxtail, Setaria faberii); experiment: Test C pre-/postemergence: foxtail, giant
In short: as §1

[10] = system: velvetleaf (Abutilon theophrasti); experiment: Test A pre-/postemergence: velvetleaf; details: for Velvetleaf plant response rating: visual rating on 0 to 100 scale (0 no effect, 100 complete control), approximately ten days
In short: as §2

[11] = system: soybean (Glycine max); experiment: Test C pre-/postemergence: soybean
In short: as §1

[12] = system: blackgrass (Alopecurus myosuroides); experiment: Test C pre-/postemergence: blackgrass
In short: as §1

[13] = Preemergence, 31 g ai/ha, scale of 0 to 100, 0 is no effect, 100 is complete control
[14] = Preemergence, 62 g ai/ha, scale of 0 to 100, 0 is no effect, 100 is complete control
[15] = Preemergence, 125 g ai/ha, scale 0 to 100, 0 no effect, 100 complete control
[16] = Preemergence, 250 g ai/ha, scale 0 to 100, 0 no effect, 100 complete control
[17] = Postemergence, 125 g ai/ha, 0 to 100 scale, 0 is no effect, 100 is complete control
[18] = Postemergence, 500 g ai/ha, visual rating on 0 to 100 scale (0 no effect, 100 complete control), approximately ten days
[19] = Preemergence, 125 g ai/ha, 0 to 100 scale where 0 is no effect and 100 is complete control
[20] = Preemergence, 500 g ai/ha, 0 to 100 scale (0 no effect, 100 complete control)
[21] = Postemergence, 31 g ai/ha, scale 0 to 100 (0 no effect, 100 complete control)
[22] = Postemergence, 62 g ai/ha, scale 0 to 100 (0 no effect, 100 complete control)
[23] = Postemergence, 125 g ai/ha, scale 0 to 100, 0 no effect, 100 complete control
[24] = Postemergence, 250 g ai/ha, scale 0 to 100

## Cc1nn(-c2ccc(F)c(C(F)(F)F)c2)nc1Oc1ccnc(C(F)(F)F)c1 [Compound 147]
[1]; [13]
  Plant response rating, Ragweed: 25
[1]; [14]
  Plant response rating, Ragweed: 40
[1]; [15]
  Plant response rating, Ragweed: 70
[1]; [16]
  Plant response rating, Ragweed: 80
[2]; [13]
  Plant response rating, Pigweed: 100
[2]; [14]
  Plant response rating, Pigweed: 100
[2]; [15]
  Plant response rating, Pigweed: 100
[2]; [16]
  Plant response rating, Pigweed: 100
[3]; [17]
  Corn plant response rating: 30
[3]; [18]
  Corn plant response rating: 40
[3]; [19]
  Plant response rating, Corn: 10
[3]; [20]
  Plant response rating, Corn: 30
[4]; [13]
  Plant response rating, Kochia: 35
[4]; [14]
  Plant response rating, Kochia: 40
[4]; [15]
  Plant response rating, Kochia: 80
[4]; [16]
  Plant response rating, Kochia: 85
[5]; [13]
  Plant response rating, Galium: 100
[5]; [14]
  Plant response rating, Galium: 100
[5]; [15]
  Plant response rating, Galium: 100
[5]; [16]
  Plant response rating, Galium: 100
[6]; [13]
  Plant response rating, Crabgrass, Large: 98
[6]; [14]
  Plant response rating, Crabgrass, Large: 100
[6]; [15]
  Plant response rating, Crabgrass, Large: 100
[6]; [16]
  Plant response rating, Crabgrass, Large: 100
[7]; [13]
  Plant response rating, Ryegrass, Italian: 10
[7]; [14]
  Plant response rating, Ryegrass, Italian: 50
[7]; [15]
  Plant response rating, Ryegrass, Italian: 85
[7]; [16]
  Plant response rating, Ryegrass, Italian: 95
[8]; [17]
  Crabgrass, Large plant response rating: 80
[8]; [18]
  Crabgrass, Large plant response rating: 90
[8]; [19]
  Plant response rating, Crabgrass, Large: 100
[8]; [20]
  Plant response rating, Crabgrass, Large: 100
[9]; [13]
  Plant response rating, Foxtail, Giant: 85
[9]; [14]
  Plant response rating, Foxtail, Giant: 98
[9]; [15]
  Plant response rating, Foxtail, Giant: 100
[9]; [16]
  Plant response rating, Foxtail, Giant: 100
[10]; [17]
  Plant response rating, Velvetleaf: 50
[10]; Postemergence, 500 g ai/ha
  Velvetleaf plant response rating: 90
[10]; [19]
  Plant response rating, Velvetleaf: 20
[10]; [20]
  Plant response rating, Velvetleaf: 50
[11]; [14]
  Plant response rating, Soybean: 20
[11]; [15]
  Plant response rating, Soybean: 20
[11]; [16]
  Plant response rating, Soybean: 35
[12]; [13]
  Plant response rating, Blackgrass: 50
[12]; [14]
  Plant response rating, Blackgrass: 85
[12]; [15]
  Plant response rating, Blackgrass: 90
[12]; [16]
  Plant response rating, Blackgrass: 90

## CCCc1nn(-c2ccc(F)cc2)nc1Cc1ccnc(C(F)(F)F)c1 [Compound 153]
[1]; [21]
  Plant response rating, Ragweed: 55
[1]; [22]
  Plant response rating, Ragweed: 55
[1]; [23]
  Plant response rating, Ragweed: 80
[1]; [24]
  Plant response rating, Ragweed: 85
[1]; [13]
  Plant response rating, Ragweed: 5
[1]; [14]
  Plant response rating, Ragweed: 10
[1]; [15]
  Plant response rating, Ragweed: 80
[1]; [16]
  Plant response rating, Ragweed: 80
[2]; [21]
  Plant response rating, Pigweed: 95
[2]; [22]
  Plant response rating, Pigweed: 95
[2]; [23]
  Plant response rating, Pigweed: 98
[2]; [24]
  Plant response rating, Pigweed: 98
[2]; [13]
  Plant response rating, Pigweed: 100
[2]; [14]
  Plant response rating, Pigweed: 100
[2]; [15]
  Plant response rating, Pigweed: 100
[2]; [16]
  Plant response rating, Pigweed: 100
[3]; [17]
  Plant response rating, Corn: 60
[3]; [18]
  Corn plant response rating: 80
[3]; [19]
  Plant response rating, Corn: 70
[3]; [20]
  Plant response rating, Corn: 80
[4]; [21]
  Plant response rating, Kochia: 90
[4]; [22]
  Plant response rating, Kochia: 90
[4]; [23]
  Plant response rating, Kochia: 90
[4]; [24]
  Plant response rating, Kochia: 90
[5]; [21]
  Plant response rating, Galium: 60
[5]; [22]
  Plant response rating, Galium: 65
[5]; [23]
  Plant response rating, Galium: 85
[5]; [24]
  Plant response rating, Galium: 85
[5]; [13]
  Plant response rating, Galium: 80
[5]; [14]
  Plant response rating, Galium: 98
[5]; [15]
  Plant response rating, Galium: 100
[5]; [16]
  Plant response rating, Galium: 100
[6]; [21]
  Plant response rating, Crabgrass, Large: 50
[6]; [22]
  Plant response rating, Crabgrass, Large: 55
[6]; [23]
  Plant response rating, Crabgrass, Large: 80
[6]; [24]
  Plant response rating, Crabgrass, Large: 90
[6]; [13]
  Plant response rating, Crabgrass, Large: 100
[6]; [14]
  Plant response rating, Crabgrass, Large: 100
[6]; [15]
  Plant response rating, Crabgrass, Large: 100
[6]; [16]
  Plant response rating, Crabgrass, Large: 100
[7]; [21]
  Plant response rating, Ryegrass, Italian: 30
[7]; [22]
  Plant response rating, Ryegrass, Italian: 35
[7]; [23]
  Plant response rating, Ryegrass, Italian: 60
[7]; [24]
  Plant response rating, Ryegrass, Italian: 65
[7]; [13]
  Plant response rating, Ryegrass, Italian: 60
[7]; [14]
  Plant response rating, Ryegrass, Italian: 90
[7]; [15]
  Plant response rating, Ryegrass, Italian: 90
[7]; [16]
  Plant response rating, Ryegrass, Italian: 90
[8]; [17]
  Plant response rating, Crabgrass, Large: 100
[8]; [18]
  Crabgrass, Large plant response rating: 100
[8]; [19]
  Plant response rating, Crabgrass, Large: 100
[8]; [20]
  Plant response rating, Crabgrass, Large: 100
[9]; [21]
  Plant response rating, Foxtail, Giant: 45
[9]; [22]
  Plant response rating, Foxtail, Giant: 80
[9]; [23]
  Plant response rating, Foxtail, Giant: 90
[9]; [24]
  Plant response rating, Foxtail, Giant: 95
[9]; [13]
  Plant response rating, Foxtail, Giant: 100
[9]; [14]
  Plant response rating, Foxtail, Giant: 100
[9]; [15]
  Plant response rating, Foxtail, Giant: 100
[9]; [16]
  Plant response rating, Foxtail, Giant: 100
[10]; [17]
  Plant response rating, Velvetleaf: 100
[10]; Postemergence, 500 g ai/ha
  Velvetleaf plant response rating: 100
[10]; [19]
  Plant response rating, Velvetleaf: 80
[10]; [20]
  Plant response rating, Velvetleaf: 100
[11]; [21]
  Plant response rating, Soybean: 55
[11]; [22]
  Plant response rating, Soybean: 70
[11]; [23]
  Plant response rating, Soybean: 70
[11]; [24]
  Plant response rating, Soybean: 85
[11]; [13]
  Plant response rating, Soybean: 20
[11]; [14]
  Plant response rating, Soybean: 20
[11]; [15]
  Plant response rating, Soybean: 35
[11]; [16]
  Plant response rating, Soybean: 35
[12]; [21]
  Plant response rating, Blackgrass: 55
[12]; [22]
  Plant response rating, Blackgrass: 60
[12]; [23]
  Plant response rating, Blackgrass: 70
[12]; [24]
  Plant response rating, Blackgrass: 90
[12]; [13]
  Plant response rating, Blackgrass: 90
[12]; [14]
  Plant response rating, Blackgrass: 90
[12]; [15]
  Plant response rating, Blackgrass: 90
[12]; [16]
  Plant response rating, Blackgrass: 90
